The numbers were not newly measured in US10039772B2, “Methods and compositions for treating alcohol use disorders” (priority 2015, dated 2018), which cites them from elsewhere.

The test system of the first series is 11β-HSD1, 11β-HSD2. The note with it: 11β-HSD isozyme specificity per cited reference; cited from earlier work.
For `Cc1c(Cl)cccc1S(=O)(=O)Nc1nc(CC(=O)N2CCN(C)CC2)cs1` [Number 5], the Specificity is 11β- HSD1 > 2.

Consider `CCN(CC)C(=O)Cc1csc(NS(=O)(=O)c2cccc(Cl)c2C)n1` [Number 6], for which the Specificity is reported as 11β- HSD1 > 2. Regarding `Cc1c(Cl)cccc1S(=O)(=O)Nc1nc(CCN2CCOCC2=O)cs1` [Number 7, 3-chloro-2-methyl-N-{4-[2-(3-oxo-4-morpholinyl)ethyl]-1,3-thiazol-2-yl}benzenesulfonamide], the Specificity is 11β- HSD1 > 2.

With `COc1cc(C(=O)N2CCC(n3c(=O)[nH]c4ccccc43)CC2)ccc1C` [Number 8], the Specificity is 11β- HSD1 > 2. Consider `CCC1(CC)OC(N[C@@H](C)c2ccccc2C(F)(F)F)=NC1=O` [Number 9], for which the Specificity is on record as 11β- HSD1 > 2. `C[C@H](NC1=NC(=O)[C@@](C)(C(C)(C)O)S1)c1ccc(F)cc1` [Number 10]: the Specificity is reported as 11β- HSD1 > 2. Turning to `C[C@H](NC1=NC(=O)[C@@](C)(C(F)(F)F)S1)c1ccccc1F` [Number 11], the Specificity was 11β- HSD1 > 2. As for `CCN(C(=O)c1ccc([C@@](C)(O)C(F)(F)F)cc1)C1CCCCC1` [Number 16], the Specificity was 11β- HSD1 > 2.

As to `CC(C)N(c1ccc([C@](C)(O)C(F)(F)F)cc1)S(=O)(=O)c1cc(Cl)ccc1Cl` [Number 20], the Specificity is reported as 11β- HSD1 > 2. In the case of `Cn1c(-c2ccccc2)nnc1C12CC3CC(CC(C3)C1)C2` [Number 23], the Specificity is given as 11β- HSD1 > 2. For `COc1c(-c2nnc(-c3ccccc3C(F)(F)F)n2C)ccc2ccc(Cl)cc12` [Number 24], the Specificity is given as 11β- HSD1 > 2. Regarding `F[C@H]1C[C@](c2ccc(Cl)cc2)(c2nnc(C3CC3)n2C2CC2)C1` [Number 25], the Specificity is on record as 11β- HSD1 > 2. In the case of `Cn1c(-c2ccc(-c3cccc(S(C)(=O)=O)c3)cc2Cl)nnc1C1(c2ccc(Cl)cc2)CCC1` [Number 26], the Specificity is 11β- HSD1 > 2.

For the compound `Cn1c(-c2ccc(-c3cnccn3)cc2Cl)nnc1[C@]1(c2ccc(Cl)cc2)C[C@@H](F)C1` [Number 27], the Specificity is 11β- HSD1 > 2. For `CCCCCC12CCC(c3nnc(-c4ccccc4C(F)(F)F)n3C)(CC1)CC2` [Number 28], the Specificity is recorded as 11β- HSD1 > 2.

`CCS(=O)(=O)CCCC12CCC(c3nnc(-c4ccccc4C(F)(F)F)n3C)(CC1)CC2` [Number 29]: the Specificity is listed as 11β- HSD1 > 2. Take `CC(C)(C)c1ccc(S(=O)(=O)N2C[C@H]3C[C@@H]2CN3C2CCCC2)cc1` [Number 30]: the Specificity is 11β- HSD1 > 2. With `Cn1c(-c2ccccc2C(F)(F)F)nnc1C12CCC(c3nc(-c4ccc(C(O)C(F)(F)F)cc4)no3)(CC1)CC2` (centres unmarked) [Number 31], the Specificity is 11β- HSD1 > 2. As for `Cn1c(-c2ccccc2C(F)(F)F)nnc1C12CCC(c3nc(-c4ccc(F)cc4)no3)(CC1)CC2` [Number 33], the Specificity is 11β- HSD1 > 2.

As for `CCN(CC)C(=O)Cc1cccc(NS(=O)(=O)c2cccc(Cl)c2C)n1` [Number 34], the Specificity was 11β- HSD1 > 2.

On to `Cc1cc(N)nc(NS(=O)(=O)c2ccc(-c3ccc(C#N)cc3)cc2)c1` [Number 36], for which the Specificity was 11β- HSD1 > 2.

The series is the same for the next values; noted with them: cited from earlier work.
In the case of `CC(C)[C@]1(C)SC(N[C@H]2C[C@@H]3CC[C@H]2C3)=NC1=O` [Number 13], the Specificity is 11β- HSD1 > 2. With `CC(C)[C@]1(C)SC(N[C@H]2C[C@H]3C[C@@H]2C[C@@H]3O)=NC1=O` [Number 14], the Specificity is listed as 11β- HSD1 > 2. Consider `C[C@](O)(c1ccc(C(=O)N(C2CC2)C2CCN(CC3(C(N)=O)CC3)CC2)cc1)C(F)(F)F` [Number 18], for which the Specificity was 11β- HSD1 > 2.

Take `C[C@](O)(c1ccc(C(=O)N(C2CC2)C2CCC(CCC(N)=O)(c3ccccc3)CC2)cc1)C(F)(F)F` (some centres unmarked) [Number 19]: the Specificity was 11β- HSD1 > 2. As to `CO[C@@H]1C[C@H]2CC[C@@H](C1)N2S(=O)(=O)c1ccc(C(C)(C)C)cc1` [Number 32], the Specificity was 11β- HSD1 > 2.
